Reference: patent US11780830B2, “Triazolone derivatives or salts thereof and pharmaceutical compositions comprising the same” (YUHAN CORPORATION, priority 2018, dated 2023)
Structures can show the parent of a compound that is named as a salt.

Assays:
Assay type in all cases: biochemical
[1] = target: T1, recombinant human DAO (diamine oxidase) (Homo sapiens, UniProt P19801); experiment: Activity on recombinant human DAO, method similar to the VAP-1 assay; settings: substrate 1 mM putrescine; read-out: Inhibitory Activity (IC50, nM) DAO
T1 construct: purchased R&D systems
T1 sequence (P19801 20-751): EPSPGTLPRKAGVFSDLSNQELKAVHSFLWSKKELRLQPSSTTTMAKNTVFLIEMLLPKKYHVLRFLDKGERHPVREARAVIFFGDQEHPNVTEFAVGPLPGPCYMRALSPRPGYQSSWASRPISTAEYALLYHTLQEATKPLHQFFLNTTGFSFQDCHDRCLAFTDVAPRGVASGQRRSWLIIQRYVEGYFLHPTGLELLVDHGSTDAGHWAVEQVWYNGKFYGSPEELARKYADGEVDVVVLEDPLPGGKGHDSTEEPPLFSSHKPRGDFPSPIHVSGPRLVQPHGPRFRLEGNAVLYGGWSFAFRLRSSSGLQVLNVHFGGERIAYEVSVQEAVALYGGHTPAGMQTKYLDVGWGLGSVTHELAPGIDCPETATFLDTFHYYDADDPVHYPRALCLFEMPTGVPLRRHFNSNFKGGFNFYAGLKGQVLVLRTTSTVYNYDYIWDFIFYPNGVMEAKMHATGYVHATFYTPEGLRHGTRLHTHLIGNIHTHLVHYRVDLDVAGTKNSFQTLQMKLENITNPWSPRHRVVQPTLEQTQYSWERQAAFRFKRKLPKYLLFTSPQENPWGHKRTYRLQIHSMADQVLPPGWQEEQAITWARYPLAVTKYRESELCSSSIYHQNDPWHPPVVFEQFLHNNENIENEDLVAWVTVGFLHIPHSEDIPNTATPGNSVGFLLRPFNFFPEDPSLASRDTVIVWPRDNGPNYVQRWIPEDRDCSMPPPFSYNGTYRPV
Procedure, shortened: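 Inhibition of recombinant human diamine oxidase (DAO, R&D systems) was assessed by the same approach as the VAP-1 assay, using 1 mM putrescine as substrate. Hydrogen peroxide formed was detected through an HRP-coupled Amplex Red reaction yielding fluorescent resorufin, read at 544 nm excitation and 590 nm emission. IC50 values came from four-parameter logistic fitting in GraphPad Prism.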

[2] = target: T2, recombinant human MAO-A (monoamine oxidase-A) (Homo sapiens, UniProt P21397); experiment: Activity on recombinant human MAO-A, method similar to the VAP-1 assay; settings: substrate 0.5 mM tyramine; read-out: Inhibitory Activity (IC50, nM) MAO-A
T2 construct: purchased Sigma-Aldrich
T2 sequence (P21397 1-527): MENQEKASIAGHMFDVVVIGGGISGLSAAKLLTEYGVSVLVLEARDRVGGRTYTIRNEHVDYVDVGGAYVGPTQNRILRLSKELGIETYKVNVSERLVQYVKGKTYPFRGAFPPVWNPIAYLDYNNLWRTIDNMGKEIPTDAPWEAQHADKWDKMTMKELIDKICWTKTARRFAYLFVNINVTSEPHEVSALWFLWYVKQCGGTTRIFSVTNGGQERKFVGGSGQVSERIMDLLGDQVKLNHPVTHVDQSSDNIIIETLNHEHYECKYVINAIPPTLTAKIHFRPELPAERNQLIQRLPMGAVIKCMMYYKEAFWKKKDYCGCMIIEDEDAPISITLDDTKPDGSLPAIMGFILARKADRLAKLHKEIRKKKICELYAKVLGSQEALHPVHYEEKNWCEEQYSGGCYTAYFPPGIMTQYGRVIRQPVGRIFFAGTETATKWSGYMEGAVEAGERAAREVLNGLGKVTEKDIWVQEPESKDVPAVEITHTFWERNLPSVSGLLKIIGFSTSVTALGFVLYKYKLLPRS
Procedure, shortened: (§1)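 Amplex Red/HRP coupled read-out of H2O2 with 0.5 mM tyramine for MAO-A or 1 mM benzylamine for MAO-B, following a 30-min compound–enzyme preincubation at 37° C. IC50 from percent inhibition of signal rate relative to uninhibited control.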

recombinant human VAP-1 = target: T3, recombinant human VAP-1 (Homo sapiens, UniProt Q16853); experiment: Activity on recombinant human VAP-1, HRP-coupled Amplex Red hydrogen peroxide assay; settings: substrate 1 mM benzylamine; compound incubated with enzyme at 37° C. for 30 minutes; pH 7.4; read-out: Inhibitory Activity (IC50, nM) human VAP-1
T3 construct: purchased R&D systems
T3 sequence (Q16853 1-763): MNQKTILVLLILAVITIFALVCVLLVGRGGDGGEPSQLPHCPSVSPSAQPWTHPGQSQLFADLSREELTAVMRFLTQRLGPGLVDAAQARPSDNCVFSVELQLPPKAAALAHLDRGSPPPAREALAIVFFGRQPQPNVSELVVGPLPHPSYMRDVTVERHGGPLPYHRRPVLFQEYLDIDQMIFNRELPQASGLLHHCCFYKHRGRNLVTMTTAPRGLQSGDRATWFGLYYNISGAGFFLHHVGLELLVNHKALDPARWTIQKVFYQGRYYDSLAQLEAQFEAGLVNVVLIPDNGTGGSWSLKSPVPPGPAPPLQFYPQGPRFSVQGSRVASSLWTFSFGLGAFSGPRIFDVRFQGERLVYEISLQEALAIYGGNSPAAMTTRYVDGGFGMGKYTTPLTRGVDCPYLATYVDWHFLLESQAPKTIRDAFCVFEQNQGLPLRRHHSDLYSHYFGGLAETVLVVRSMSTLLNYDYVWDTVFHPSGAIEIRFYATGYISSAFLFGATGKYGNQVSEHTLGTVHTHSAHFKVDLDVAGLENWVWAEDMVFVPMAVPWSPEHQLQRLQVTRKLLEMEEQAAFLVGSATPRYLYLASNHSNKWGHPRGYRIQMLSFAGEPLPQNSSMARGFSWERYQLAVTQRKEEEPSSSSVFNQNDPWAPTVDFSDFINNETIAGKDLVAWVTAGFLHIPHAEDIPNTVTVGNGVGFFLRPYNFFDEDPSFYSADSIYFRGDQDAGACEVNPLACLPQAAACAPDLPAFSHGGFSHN
Procedure, shortened: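 Dose-response IC50 determined from reduction in resorufin signal rate (544/590 nm, 1-2 h), with 30 min compound preincubation at 37 °C and 1 mM benzylamine as substrate.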

[3] = target: T4, recombinant human MAO-B (monoamine oxidase-B) (Homo sapiens, UniProt P27338); experiment: Activity on recombinant human MAO-B, method similar to the VAP-1 assay; settings: substrate 1 mM benzylamine; read-out: Inhibitory Activity (IC50, nM) MAO-B
T4 construct: purchased Sigma-Aldrich
T4 sequence (P27338 1-520): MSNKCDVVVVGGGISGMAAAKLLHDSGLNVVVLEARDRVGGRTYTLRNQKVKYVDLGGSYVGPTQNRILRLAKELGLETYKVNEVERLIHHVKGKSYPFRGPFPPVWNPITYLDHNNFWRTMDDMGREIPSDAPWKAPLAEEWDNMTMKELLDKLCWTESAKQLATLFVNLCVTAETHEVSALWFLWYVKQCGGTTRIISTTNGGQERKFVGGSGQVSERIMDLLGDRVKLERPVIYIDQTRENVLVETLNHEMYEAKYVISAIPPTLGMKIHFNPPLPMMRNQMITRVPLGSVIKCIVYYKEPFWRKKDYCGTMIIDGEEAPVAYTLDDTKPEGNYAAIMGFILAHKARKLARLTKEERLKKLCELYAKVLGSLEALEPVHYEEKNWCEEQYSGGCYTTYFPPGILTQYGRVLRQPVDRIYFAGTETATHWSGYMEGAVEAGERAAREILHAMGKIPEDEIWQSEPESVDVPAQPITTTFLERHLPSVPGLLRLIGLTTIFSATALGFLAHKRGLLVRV
Procedure, shortened: as §1

| SMILES | IC50 [1] [nM] | IC50 [2] [nM] | IC50 (recombinant human VAP-1) [nM] | IC50 [3] [nM] |
| --- | --- | --- | --- | --- |
| CC(C)(C)NS(=O)(=O)c1cncc(-c2ccc(Cn3cnn(C/C(=C/F)CN)c3=O)s2)c1 [Example 43, 5-[5-(1-[(2E)-2-(aminomethyl)-3-fluoroprop-2-en-1-yl]-5-oxo-1,5-dihydro-4H-1,2,4-triazol-4-ylmethyl)thiophen-2-yl]-N-tert-butylpyridin-3-sulfonamide hydrochloride] | 110 | > 100000 | 4.1 | > 10000 |
| COc1ccc(-c2ccc(Cn3cnn(C/C(=C/F)CN)c3=O)s2)cn1 [Example 45, 2-[(2E)-2-(aminomethyl)-3-fluoroprop-2-en-1-yl]-4-[5-(6-methoxypyridin-3-yl)thiophen-2-yl]methyl-2,4-dihydro-3H-1,2,4-triazol-3-one hydrochloride] | 330 | > 100000 | 1.1 | 400 |
| CSc1ccc(-c2ccc(Cn3cnn(C/C(=C/F)CN)c3=O)s2)cn1 [Example 46, 2-[(2E)-2-(aminomethyl)-3-fluoroprop-2-en-1-yl]-4-(5-[6-(methylsulfanyl)pyridin-3-yl]thiophen-2-ylmethyl)-2,4-dihydro-3H-1,2,4-triazol-3-one hydrochloride] | 380 | > 10000 | 1.3 | 740 |
| NC/C(=C\F)Cn1ncn(Cc2ccc(-c3ccc(OCC(F)(F)F)nc3)s2)c1=O [Example 47, 2-[(2E)-2-(aminomethyl)-3-fluoroprop-2-en-1-yl]-4-(5-[6-(2,2,2-trifluoroethoxy)pyridin-3-yl]thiophen-2-ylmethyl)-2,4-dihydro-3H-1,2,4-triazol-3-one hydrochloride] | 530 | > 100000 | 4.7 | 980 |
| NC/C(=C\F)Cn1ncn(Cc2ccc(-c3ccc(C(F)(F)F)nc3)s2)c1=O [Example 49, 2-[(2E)-2-(aminomethyl)-3-fluoroprop-2-en-1-yl]-4-(5-[6-(trifluoromethyl)pyridin-3-yl]thiophen-2-ylmethyl)-2,4-dihydro-3H-1,2,4-triazol-3-one hydrochloride] | 98 | > 100000 | 0.5 | 360 |
| N#Cc1ccc(-c2ccc(Cn3cnn(C/C(=C/F)CN)c3=O)s2)cn1 [Example 50, 5-[5-(1-[(2E)-2-(aminomethyl)-3-fluoroprop-2-en-1-yl]-5-oxo-1,5-dihydro-4H-1,2,4-triazol-4-ylmethyl)thiophen-2-yl]pyridine-2-carbonitrile hydrochloride] | 360 | > 100000 | 0.5 | 3700 |
| NC/C(=C\F)Cn1ncn(Cc2ccc(-c3ccc(N4CCCCC4)nc3)s2)c1=O [Example 52, 2-[(2E)-2-(aminomethyl)-3-fluoroprop-2-en-1-yl]-4-(5-[6-(piperidin-1-yl)pyridin-3-yl]thiophen-2-ylmethyl)-2,4-dihydro-3H-1,2,4-triazol-3-one hydrochloride] | 170 | > 100000 | 0.8 | 640 |
| CN(C)c1ncc(-c2ccc(Cn3cnn(C/C(=C/F)CN)c3=O)s2)cn1 [Example 55, 2-[(2E)-2-(aminomethyl)-3-fluoroprop-2-en-1-yl]-4-(5-[2-(dimethylamino)pyrimidin-5-yl]thiophen-2-ylmethyl)-2,4-dihydro-3H-1,2,4-triazol-3-one hydrochloride] | 180 | > 100000 | 0.5 | 6400 |
| CSc1ncc(-c2ccc(Cn3cnn(C/C(=C/F)CN)c3=O)s2)cn1 [Example 56, 2-[(2E)-2-(aminomethyl)-3-fluoroprop-2-en-1-yl]-4-(5-[2-(methylsulfanyl)pyrimidin-5-yl]thiophen-2-ylmethyl)-2,4-dihydro-3H-1,2,4-triazol-3-one hydrochloride] | 40 | > 100000 | 0.4 | 4200 |
| NC/C(=C\F)Cn1ncn(Cc2ccc(-c3cnc(N4CCOCC4)nc3)s2)c1=O [Example 57, 2-[(2E)-2-(aminomethyl)-3-fluoroprop-2-en-1-yl]-4-(5-[2-(morpholin-4-yl)pyrimidin-5-yl]thiophen-2-ylmethyl)-2,4-dihydro-3H-1,2,4-triazol-3-one hydrochloride] | 83 | 6600 | 2.2 | 1600 |
| CN1CC=C(c2ccc(Cn3cnn(C/C(=C/F)CN)c3=O)s2)CC1 [Example 58, 2-[(2E)-2-(aminomethyl)-3-fluoroprop-2-en-1-yl]-4-[5-(1-methyl-1,2,3,6-tetrahydropyridin-4-yl)thiophen-2-yl]methyl-2,4-dihydro-3H-1,2,4-triazol-3-one hydrochloride] | 780 | > 100000 | 3.9 | > 10000 |
| CC(=O)N1CC=C(c2ccc(Cn3cnn(C/C(=C/F)CN)c3=O)s2)CC1 [Example 59, 4-[[5-(1-acetyl-3,6-dihydro-2H-pyridin-4-yl)-2-thienyl]methyl]-2-[(E)-2-(aminomethyl)-3-fluoro-allyl]-1,2,4-triazol-3-one] | 1300 | > 100000 | 0.5 | 990 |
